Source: PubChem BioAssay (NCI)
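A five-concentration, 48-hour dose response in 96-well plates underlies each endpoint, interpolated linearly between surrounding concentrations. TGI is the concentration that stops growth completely.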

Columns and labels:
Test in all cases: NCI-60 cell line screen, 48 h
[1] = system: UO-31 renal
[2] = system: SK-MEL-5 melanoma
[3] = system: MOLT-4 leukemia
[4] = system: SN12C renal
[5] = system: HT29 colon
[6] = system: OVCAR-4 ovarian
[7] = system: HCT-15 colon
[8] = system: 786-0 renal
[9] = system: ACHN renal
[10] = system: NCI-H23 lung
[11] = system: OVCAR-8 ovarian
[12] = system: SW-620 colon
[13] = system: HOP-92 NSCLC
[14] = system: RPMI-8226 leukemia
[15] = system: OVCAR-5 ovarian
[16] = system: SNB-75 CNS
[17] = system: MDA-MB-231 breast
[18] = system: MCF7 breast

Row | Structure (SMILES) | TGI [1] [µM] | TGI [2] [µM] | TGI [3] [µM] | TGI [4] [µM] | TGI [5] [µM] | TGI [6] [µM] | TGI [7] [µM] | TGI [8] [µM] | TGI [9] [µM] | TGI [10] [µM] | TGI [11] [µM] | TGI [12] [µM] | TGI [13] [µM] | TGI [14] [µM] | TGI [15] [µM] | TGI [16] [µM] | TGI [17] [µM] | TGI [18] [µM]
1 | O=C1CSC(Cc2nc3ccccc3[nH]2)=N1 | 35 | 26.6 | > 100 | 44.8 | > 100 | 41.6 | 37.7 | 32.6 | 9.79 | 43.8 | 74.9 | > 100 | 57.8 | > 100 | 57.5 | 27.4 | – | –
2 | O=C1C(Cl)C(c2ccccc2)N1n1cnc2ccccc2c1=O (stereo not drawn) | > 100 | > 100 | > 100 | > 100 | > 100 | > 100 | > 100 | > 100 | > 100 | > 100 | > 100 | > 100 | – | > 100 | > 100 | 82.4 | – | –
3 | O=C(Nc1ccc([N+](=O)[O-])cc1)C1C(=O)C(=O)N(c2ccc([N+](=O)[O-])cc2)C1=O (stereo not drawn) | > 100 | > 100 | > 100 | > 100 | > 100 | – | > 100 | > 100 | > 100 | > 100 | > 100 | 33.9 | > 100 | > 100 | > 100 | > 100 | – | –
4 | O=c1[nH]cc(COCC(F)(F)C(F)(F)C(F)(F)C(F)F)c(=O)[nH]1 | > 100 | > 100 | > 100 | > 100 | > 100 | – | > 100 | > 100 | > 100 | > 100 | > 100 | > 100 | > 100 | > 100 | > 100 | > 100 | – | –
5 | N#CC(C(=O)/C(=N/Nc1nc(=S)[nH]n1N)C(C#N)c1ccccc1)c1ccccc1 (stereo not drawn) | > 100 | > 100 | – | > 100 | > 100 | > 100 | > 100 | > 100 | > 100 | > 100 | > 100 | > 100 | > 100 | > 100 | > 100 | > 100 | > 100 | > 100
6 | Cc1cn(C2CC(ON3C(=O)c4ccccc4C3=O)C(CO)O2)c(=O)[nH]c1=O (stereo not drawn) | > 10 | – | > 10 | > 10 | > 10 | > 10 | > 10 | > 10 | > 10 | > 10 | > 10 | > 10 | > 10 | – | > 10 | > 10 | – | > 10
7 | CCOC(=O)C(N=Nc1ccc(S(N)(=O)=O)cc1)C(C)=O (stereo not drawn) | > 100 | > 100 | > 100 | > 100 | > 100 | > 100 | > 100 | > 100 | > 100 | > 100 | > 100 | > 100 | > 100 | > 100 | > 100 | > 100 | – | –
8 | CCC1c2[nH]c3ccccc3c2C[C@H]2C(=O)NC(COC(C)(C)C)C(=O)N12 (stereo partly drawn) | > 100 | 93.3 | 98.5 | > 100 | > 100 | > 100 | > 100 | > 100 | > 100 | > 100 | > 100 | > 100 | 90.6 | > 100 | > 100 | 78.6 | > 100 | > 100
9 | Cc1cn(C2CC(N(O)Cc3ccccc3)C(CO)O2)c(=O)[nH]c1=O (stereo not drawn) | > 100 | > 100 | > 100 | > 100 | > 100 | > 100 | > 100 | > 100 | > 100 | > 100 | > 100 | > 100 | – | > 100 | > 100 | > 100 | – | –
10 | COc1c(C)c2c(c(C)c1Cl)Oc1c(C=O)c(O)c(Cl)c(C)c1C(=O)O2 | – | > 100 | 65.2 | > 100 | > 100 | – | – | > 100 | 69.7 | 45.2 | > 100 | > 100 | – | > 100 | 78.8 | 79.7 | – | –
11 | CC1=C(C(=O)Nc2c(C)cccc2C)C(c2ccccc2Cl)C(C(=O)Nc2c(C)cccc2C)=C(C)N1 | > 100 | > 100 | > 100 | > 100 | > 100 | > 100 | – | > 100 | > 100 | > 100 | > 100 | > 100 | > 100 | > 100 | > 100 | > 100 | – | –
12 | COC(=O)C(=C/c1ccc(OC)cc1)/C(C(=O)O)=C(/C)c1ccccc1 | > 100 | > 100 | > 100 | > 100 | > 100 | > 100 | > 100 | > 100 | > 100 | > 100 | > 100 | > 100 | > 100 | > 100 | > 100 | > 100 | – | –
13 | COc1cc2c(cc1OCc1ccccc1)CNCC2 | > 100 | > 100 | > 100 | > 100 | > 100 | > 100 | > 100 | > 100 | > 100 | > 100 | > 100 | > 100 | > 100 | – | > 100 | > 100 | – | –
14 | CC(C)(C)C(=O)/C=C/c1ccc(Oc2ccccc2)cc1 | 54.3 | 32.5 | 42.4 | 46 | 25 | – | – | 40 | 32.7 | – | > 100 | 36.1 | – | 29.3 | 33.8 | 74.5 | – | –
15 | C/C(=C1/CCCC2(N=NCC2c2ccccc2)C1=O)c1ccccc1 (stereo not drawn) | > 100 | 25.3 | 48.1 | > 100 | 56.7 | > 100 | > 100 | > 100 | > 100 | 67.5 | 64.2 | > 100 | > 100 | > 100 | > 100 | 99.7 | – | –
